Data from patent publication US20040147478A1, “Combination chemotherapy” (priority 2002, published 2004).
Read-outs that look alike come from different tables or passages of the source.

Tests used:
[1] = test system: C26/clone 10 mouse colon carcinoma
[2] = test system: C26/clone 10 mouse colon carcinoma; remark: listed apart in the source
in vivo [3] = details: female, NCr-nu athymic
[4] = test system: COLO-205 human colon carcinoma xenografts
in vivo [5] = details: female, Balb/C, mouse, po
in vivo [6] = details: female, NCr-nu athymic; remark: listed apart in the source
[7] = test system: COLO-205 human colon carcinoma xenografts; remark: listed apart in the source
in vivo [8] = details: female, NCr-nu athymic; remark: listed apart in the source
[9] = test system: COLO-205 human colon carcinoma xenografts; remark: listed apart in the source
[10] = Capecitabine 500 mg/kg QD alone
[11] = Capecitabine 650 mg/kg QD alone
[12] = Capecitabine 500 mg/kg qd alone
[13] = highest dose of capecitabine alone
[14] = Capecitabine 650 mg/kg qd alone
[15] = Compound A single agent at the MTD

O=C(NOCC1CC1)c1ccc(F)c(F)c1Nc1ccc(I)cc1Cl [CI-1040, 2-(2-Chloro-4-iodo-phenylamino)-N-cyclopropylmethoxy-3,4-difluorobenzamide]
% Weight Change ([1]; CI-1040 37.5 mg/kg tid alone): −5.1%
CR (complete response) ([1]; CI-1040 37.5 mg/kg tid alone): 0/10
Net Log10 Kill ([1]; CI-1040 37.5 mg/kg tid alone): −0.62
Non-specific Deaths ([1]; CI-1040 37.5 mg/kg tid alone): 0/10
PR (partial response) ([1]; CI-1040 37.5 mg/kg tid alone): 0/10
T-C (tumor growth delay) ([1]; CI-1040 37.5 mg/kg tid alone): 3.8 days
Tumor Free (day 93) ([1]; CI-1040 37.5 mg/kg tid alone): 0/10
% Weight Change ([1]; CI-1040 75.0 mg/kg tid alone): −5.1%
CR (complete response) ([1]; CI-1040 75.0 mg/kg tid alone): 0/10
Net Log10 Kill ([1]; CI-1040 75.0 mg/kg tid alone): −0.21
Non-specific Deaths ([1]; CI-1040 75.0 mg/kg tid alone): 0/10
PR (partial response) ([1]; CI-1040 75.0 mg/kg tid alone): 0/10
T-C (tumor growth delay) ([1]; CI-1040 75.0 mg/kg tid alone): 9.8 days
Tumor Free (day 93) ([1]; CI-1040 75.0 mg/kg tid alone): 0/10
% Weight Change ([1]; CI-1040 300.0 mg/kg tid alone): −5.1%
CR (complete response) ([1]; CI-1040 300.0 mg/kg tid alone): 0/10
Net Log10 Kill ([1]; CI-1040 300.0 mg/kg tid alone): 0.25
Non-specific Deaths ([1]; CI-1040 300.0 mg/kg tid alone): 0/10
PR (partial response) ([1]; CI-1040 300.0 mg/kg tid alone): 2/10
T-C (tumor growth delay) ([1]; CI-1040 300.0 mg/kg tid alone): 16.7 days
Tumor Free (day 93) ([1]; CI-1040 300.0 mg/kg tid alone): 0/10
partial tumor responses ([1]; CI-1040 300 mg/kg/treatment alone): 20%
loss of initial body weight ([1]; CI-1040 alone, over the dosage range administered): approximately 5%
% Weight Change ([2]; CI-1040 37.5 mg/kg tid alone): −5.6%
CR (complete response) ([2]; CI-1040 37.5 mg/kg tid alone): 0/10
Net Log10 Kill ([2]; CI-1040 37.5 mg/kg tid alone): −0.93
Non-specific Deaths ([2]; CI-1040 37.5 mg/kg tid alone): 0/10
PR (partial response) ([2]; CI-1040 37.5 mg/kg tid alone): 0/10
T-C (tumor growth delay) ([2]; CI-1040 37.5 mg/kg tid alone): 1.9 days
Tumor Free (day 56) ([2]; CI-1040 37.5 mg/kg tid alone): 0/10
% Weight Change ([2]; CI-1040 75.0 mg/kg tid alone): −10.5%
CR (complete response) ([2]; CI-1040 75.0 mg/kg tid alone): 0/10
Net Log10 Kill ([2]; CI-1040 75.0 mg/kg tid alone): −0.33
Non-specific Deaths ([2]; CI-1040 75.0 mg/kg tid alone): 0/10
PR (partial response) ([2]; CI-1040 75.0 mg/kg tid alone): 1/10
T-C (tumor growth delay) ([2]; CI-1040 75.0 mg/kg tid alone): 9.0 days
Tumor Free (day 56) ([2]; CI-1040 75.0 mg/kg tid alone): 0/10
% Weight Change ([2]; CI-1040 300.0 mg/kg tid alone): −5.3%
CR (complete response) ([2]; CI-1040 300.0 mg/kg tid alone): 0/10
Net Log10 Kill ([2]; CI-1040 300.0 mg/kg tid alone): −0.04
Non-specific Deaths ([2]; CI-1040 300.0 mg/kg tid alone): 0/10
PR (partial response) ([2]; CI-1040 300.0 mg/kg tid alone): 4/10
T-C (tumor growth delay) ([2]; CI-1040 300.0 mg/kg tid alone): 12.5 days
Tumor Free (day 56) ([2]; CI-1040 300.0 mg/kg tid alone): 0/10
partial tumor rate ([2]; highest dose of CI-1040 alone): 40%

CCCCCOC(=O)Nc1nc(=O)n([C@@H]2O[C@H](C)[C@@H](O)[C@H]2O)cc1F [Capecitabine, 5′-deoxy-5-fluoro-N-[(pentyloxy)carbonyl]-cytidine]
MTD (in vivo [3]): 650 mg/kg
CR (complete response) [4, 10]: 0/10
Net Log10 Kill [4, 10]: 0.7
Non-specific Deaths [4, 10]: 0/10
PR (partial response) [4, 10]: 1/10
T-C (tumor growth delay) [4, 10]: 33.4 days
Tumor Free (day 118) [4, 10]: 0/10
CR (complete response) [4, 11]: 3/10
Net Log10 Kill [4, 11]: 1.5
Non-specific Deaths [4, 11]: 0/10
PR (partial response) [4, 11]: 4/10
T-C (tumor growth delay) [4, 11]: 56.0 days
Tumor Free (day 118) [4, 11]: 2/10
CR (complete response) [1, 12]: 4/10
Net Log10 Kill [1, 12]: 0.50
Non-specific Deaths [1, 12]: 0/10
PR (partial response) [1, 12]: 1/10
T-C (tumor growth delay) [1, 12]: 18.4 days
Tumor Free (day 93) [1, 12]: 3/10
tumor growth delay ([1]; both dosages of capecitabine alone): approximately 18 days
complete tumor responses ([1]; capecitabine 500 mg/kg alone): 40%
partial tumor responses ([1]; capecitabine 500 mg/kg alone): 10%
tumor-free when the study ended on day 93 ([1]; capecitabine 500 mg/kg alone): 30%
complete tumor responses [1, 13]: 70%
partial tumor responses [1, 13]: 10%
loss of initial body weight ([1]; mouse, in vivo): approximately 5%
MTD (in vivo [5]): 750 mg/kg/day
MTD (in vivo [6]): 650 mg/kg
Tumor Free (day 112) [7, 12]: 1/9
Non-specific Deaths [7, 14]: 0/10
Tumor Free (day 112) [7, 14]: 2/10
CR (complete response) [2, 12]: 0/10
Net Log10 Kill [2, 12]: 0.20
Non-specific Deaths [2, 12]: 0/10
PR (partial response) [2, 12]: 0/10
T-C (tumor growth delay) [2, 12]: 13.4 days
Tumor Free (day 56) [2, 12]: 0/10
partial tumor responses ([2]; capecitabine 750 mg/kg alone): 40%
MTD (in vivo [8]): 650 mg/kg
Tumor Free (day 129) [9, 12]: 0/10
Non-specific Deaths [9, 14]: 0/10
Tumor Free (day 129) [9, 14]: 0/10

O=C(NOC[C@H](O)CO)c1ccc(F)c(F)c1Nc1ccc(I)cc1F [Compound A, N-[(R)-2,3-Dihydroxy-propoxy]-3,4-difluoro-2-(2-fluoro-4-iodo-phenylamino)-benzamide]
MTD (in vivo [3]): 12.5 mg/kg
Net Log10 Kill ([4]; Compound A 3.13 mg/kg QD alone): 0.9
T-C (tumor growth delay) ([4]; Compound A 3.13 mg/kg QD alone): 40.6 days
Net Log10 Kill ([4]; Compound A 6.25 mg/kg QD alone): 0.6
T-C (tumor growth delay) ([4]; Compound A 6.25 mg/kg QD alone): 30.1 days
growth delays [4, 15]: up to 42 days
tumor cells survived treatment (net kill calculations) ([4]; Compound A single agent, all tolerated dose levels): > 10%
complete regressions ([4]; Compound A single agent, all tolerated doses): > 50%
MTD (in vivo [6]): 12.5 mg/kg
tumor cells survived treatment (net kill calculations) ([7]; Compound A single agent, most tolerated dose levels): > 10%
MTD (in vivo [8]): 12.5 mg/kg
tumor cells survived treatment (net kill calculations) [9, 15]: < 10%
